# Experimental data taken from article PMC6874683, “Pyrrothiogatain acts as an inhibitor of GATA family proteins and inhibits Th2 cell differentiation in vitro” (Scientific Reports, 2019).
# Tested on: GATA3 expression
# Assay: Immunoblot of GATA3, naive CD4+ T cells under Th2 conditions
# Format: cell-based, mouse
# Settings: 80 µM, 5 days
# Protocol: Figure 5 Pyrrothiogatain inhibits Th2 cell differentiation and production of Th2 cytokines. (A) Intracellular staining of IL-5/IL-13, IL-4/IFN-γ, and IL-2/IFN-γ in naive CD4^+ T cells cultured under Th2 conditions in the presence or absence of pyrrothiogatain (30 and 80 µM) for five days. (B) Cytokine production induced in the pyrrothiogatain treated Th2 cells shown in panel (A) was determined by ELISA. (C) Quantitative RT-PCR analysis of the pyrrothiogatain-treated Th2 cells shown in panel (A). (D) Immunoblot analysis of GATA3 in naive CD4^+ T cells cultured under Th2 conditions in the presence or absence of pyrrothiogatain (80 µM) for 5 days. (E) Cytokine production from Th2 cells stimulated with immobilized anti-TCRβ mAb for 16 h in the presence or absence of pyrrothiogatain (0 to 100 µM). The amounts of IL-4, IL-5 and IL-13 in the culture supernatants were determined by ELSA. In (B), (C) and (E), all data are expressed as individual points of three independent experiments with error bars indicating standard deviation. […]
smiles,measurement,value
"Cc1ccc(C)n1-c1ccsc1C(=O)O [Pyrrothiogatain, 3-(2,5-dimethyl-1H-pyrrol-1-yl)thiophene-2-carboxylic acid]","Expression of GATA3, protein level",not influenced
